# Data taken from PMC8185074, “Anchor extension: a structure-guided approach to design cyclic peptides targeting enzyme active sites” (Nature Communications, 2021).
# Values joined by “and” are separate entries in the source; they are usually repeats but may differ in a detail not shown here. Equal entries are not always repeated. “Also recorded” adds a separate entry of the source. Where two headings read alike, the source gives them in different places. Peptide text beside a SMILES is read from it.
# What was measured:
# Type in all cases: biochemical
# HDAC2 = target: T1, HDAC2 (Homo sapiens, UniProt Q92769); assay: Initial HDAC2 IC50 estimate (BPS Biosciences HDAC fluorogenic assay kit); conditions: Supplementary Dataset 2; read-out: HDAC2 activity (initial activity)
# T1 construct: purchased Reaction Biology Corporation (assay run by the CRO)
# T1 sequence (Q92769 whole entry): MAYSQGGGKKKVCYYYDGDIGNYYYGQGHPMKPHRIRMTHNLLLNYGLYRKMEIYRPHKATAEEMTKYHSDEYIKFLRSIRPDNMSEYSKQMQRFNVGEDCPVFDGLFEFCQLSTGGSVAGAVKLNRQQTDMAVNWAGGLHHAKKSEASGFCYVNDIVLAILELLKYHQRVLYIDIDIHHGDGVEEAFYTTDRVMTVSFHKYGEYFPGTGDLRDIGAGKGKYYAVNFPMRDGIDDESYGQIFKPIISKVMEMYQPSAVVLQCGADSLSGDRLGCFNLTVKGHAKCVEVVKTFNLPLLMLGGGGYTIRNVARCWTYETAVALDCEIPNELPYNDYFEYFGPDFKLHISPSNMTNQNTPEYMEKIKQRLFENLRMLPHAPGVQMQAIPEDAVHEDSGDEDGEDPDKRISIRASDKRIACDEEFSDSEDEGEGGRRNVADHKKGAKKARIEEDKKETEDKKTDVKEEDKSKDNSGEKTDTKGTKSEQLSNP
# In short: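 Inhibition measured by kit-based fluorogenic HDAC activity assays, with each point in duplicate or triplicate. Values come from a full 1 µM–100 pM series (1:10 steps) or are range estimates from just 20 nM and 200 nM.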
# HDAC6 = target: T2, HDAC6 (Homo sapiens, UniProt Q9UBN7); assay: HDAC6 inhibition, full IC50 measurement (Reaction Biology; fluorogenic p53 peptide RHKK(Ac)AMC); conditions: for IC50: read-out: HDAC6 IC50
# T2 construct: purchased Reaction Biology Corporation (assay run by the CRO)
# T2 sequence (Q9UBN7 1-1215): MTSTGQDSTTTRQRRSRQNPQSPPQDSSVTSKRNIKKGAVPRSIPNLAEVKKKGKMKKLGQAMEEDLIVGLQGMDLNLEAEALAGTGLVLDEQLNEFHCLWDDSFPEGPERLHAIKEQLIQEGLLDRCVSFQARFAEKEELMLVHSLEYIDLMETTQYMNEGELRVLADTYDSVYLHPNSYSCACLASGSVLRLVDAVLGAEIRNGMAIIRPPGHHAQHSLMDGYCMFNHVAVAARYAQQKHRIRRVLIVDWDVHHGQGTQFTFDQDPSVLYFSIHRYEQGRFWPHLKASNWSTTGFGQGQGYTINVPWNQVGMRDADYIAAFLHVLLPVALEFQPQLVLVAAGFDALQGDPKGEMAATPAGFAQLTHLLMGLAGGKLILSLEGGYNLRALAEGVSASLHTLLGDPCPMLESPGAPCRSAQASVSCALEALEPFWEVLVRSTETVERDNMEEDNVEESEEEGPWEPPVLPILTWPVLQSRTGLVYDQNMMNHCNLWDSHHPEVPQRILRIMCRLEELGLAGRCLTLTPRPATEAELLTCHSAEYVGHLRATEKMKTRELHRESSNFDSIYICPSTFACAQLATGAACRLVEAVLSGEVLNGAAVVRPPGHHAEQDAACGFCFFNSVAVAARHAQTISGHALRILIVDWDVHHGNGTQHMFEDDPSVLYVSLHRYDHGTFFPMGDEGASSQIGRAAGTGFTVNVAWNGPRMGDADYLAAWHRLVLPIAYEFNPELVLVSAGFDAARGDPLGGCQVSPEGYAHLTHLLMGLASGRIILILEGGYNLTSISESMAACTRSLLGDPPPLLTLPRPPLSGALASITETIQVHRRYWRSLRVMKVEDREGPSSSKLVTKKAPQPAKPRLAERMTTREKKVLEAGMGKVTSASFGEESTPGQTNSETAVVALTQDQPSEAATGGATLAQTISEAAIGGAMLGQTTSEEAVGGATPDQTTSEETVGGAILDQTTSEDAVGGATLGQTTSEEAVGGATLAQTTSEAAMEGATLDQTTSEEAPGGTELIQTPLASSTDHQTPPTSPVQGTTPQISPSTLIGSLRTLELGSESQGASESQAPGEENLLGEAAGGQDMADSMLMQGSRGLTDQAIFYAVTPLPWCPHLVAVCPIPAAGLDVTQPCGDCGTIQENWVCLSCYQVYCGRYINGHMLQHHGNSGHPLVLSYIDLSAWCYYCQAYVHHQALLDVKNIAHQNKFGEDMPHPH
# In short: (§1)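 Deacetylation of 50 μM RHKK(Ac)AMC is measured after 1 h at 30 °C in pH 8.0 Tris buffer (1% DMSO, 1 mg/ml BSA). Developer ends the reaction; the post-plateau 360/460 nm signal is fitted to IC50, averaging replicate measurements.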
# HDAC9 = HDAC9 (Homo sapiens, UniProt Q9UKV0); assay: HDAC9 profiling of SHA anchor and early peptides
# Chain of HDAC9 (Q9UKV0 whole entry): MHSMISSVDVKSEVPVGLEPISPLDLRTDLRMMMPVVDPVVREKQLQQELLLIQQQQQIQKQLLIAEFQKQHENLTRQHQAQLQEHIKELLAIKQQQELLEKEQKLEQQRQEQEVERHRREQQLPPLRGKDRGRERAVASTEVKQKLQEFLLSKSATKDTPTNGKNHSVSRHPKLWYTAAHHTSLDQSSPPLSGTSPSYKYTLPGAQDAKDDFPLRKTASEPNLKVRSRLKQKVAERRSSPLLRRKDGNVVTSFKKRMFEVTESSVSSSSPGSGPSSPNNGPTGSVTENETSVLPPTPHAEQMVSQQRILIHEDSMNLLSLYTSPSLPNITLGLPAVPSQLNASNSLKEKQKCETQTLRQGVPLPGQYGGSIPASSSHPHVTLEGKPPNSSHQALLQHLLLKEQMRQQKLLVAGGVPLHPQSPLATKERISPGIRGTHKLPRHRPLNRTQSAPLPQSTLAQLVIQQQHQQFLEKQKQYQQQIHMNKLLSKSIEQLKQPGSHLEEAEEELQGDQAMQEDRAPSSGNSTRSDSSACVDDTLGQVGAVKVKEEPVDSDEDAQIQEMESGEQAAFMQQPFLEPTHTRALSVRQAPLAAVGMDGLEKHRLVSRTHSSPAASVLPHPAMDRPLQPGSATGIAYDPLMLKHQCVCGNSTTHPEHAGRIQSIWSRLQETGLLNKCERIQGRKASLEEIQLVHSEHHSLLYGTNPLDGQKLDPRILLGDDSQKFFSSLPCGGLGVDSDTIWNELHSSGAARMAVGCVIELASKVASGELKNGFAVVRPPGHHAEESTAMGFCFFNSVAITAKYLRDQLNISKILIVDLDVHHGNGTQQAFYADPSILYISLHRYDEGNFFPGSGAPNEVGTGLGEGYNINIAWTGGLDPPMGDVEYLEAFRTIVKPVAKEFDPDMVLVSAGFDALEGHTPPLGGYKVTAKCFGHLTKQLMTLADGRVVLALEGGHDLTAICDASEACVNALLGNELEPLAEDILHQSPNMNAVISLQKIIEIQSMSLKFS
# HDAC3 = target: T3, HDAC3 (Homo sapiens, UniProt O15379); assay: HDAC3 inhibition, full IC50 measurement (Reaction Biology; fluorogenic p53 peptide RHKK(Ac)AMC)
# T3 construct: purchased Reaction Biology Corporation (assay run by the CRO)
# T3 sequence (O15379 whole entry): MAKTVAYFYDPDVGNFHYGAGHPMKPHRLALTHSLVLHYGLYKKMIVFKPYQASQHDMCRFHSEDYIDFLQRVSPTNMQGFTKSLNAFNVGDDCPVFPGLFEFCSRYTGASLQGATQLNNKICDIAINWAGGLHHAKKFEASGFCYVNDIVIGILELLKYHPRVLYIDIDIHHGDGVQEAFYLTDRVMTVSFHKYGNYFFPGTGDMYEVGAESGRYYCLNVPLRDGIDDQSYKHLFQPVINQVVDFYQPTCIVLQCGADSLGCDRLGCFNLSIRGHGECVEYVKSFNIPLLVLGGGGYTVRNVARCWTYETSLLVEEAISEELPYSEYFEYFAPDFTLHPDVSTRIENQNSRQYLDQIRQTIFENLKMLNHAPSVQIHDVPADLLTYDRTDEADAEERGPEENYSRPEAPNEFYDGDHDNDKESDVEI
# T3 sequence (Q9Y618 395-489 partner limits assumed): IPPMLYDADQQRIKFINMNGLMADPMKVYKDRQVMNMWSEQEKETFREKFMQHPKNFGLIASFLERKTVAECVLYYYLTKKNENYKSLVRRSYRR
# In short: as §1
# HDAC4 = target: T4, HDAC4 (Homo sapiens, UniProt P56524); assay: HDAC4 inhibition/binding test (BPS Biosciences HDAC fluorogenic assay kit)
# T4 construct: purchased BPS Biosciences
# T4 sequence (P56524 whole entry): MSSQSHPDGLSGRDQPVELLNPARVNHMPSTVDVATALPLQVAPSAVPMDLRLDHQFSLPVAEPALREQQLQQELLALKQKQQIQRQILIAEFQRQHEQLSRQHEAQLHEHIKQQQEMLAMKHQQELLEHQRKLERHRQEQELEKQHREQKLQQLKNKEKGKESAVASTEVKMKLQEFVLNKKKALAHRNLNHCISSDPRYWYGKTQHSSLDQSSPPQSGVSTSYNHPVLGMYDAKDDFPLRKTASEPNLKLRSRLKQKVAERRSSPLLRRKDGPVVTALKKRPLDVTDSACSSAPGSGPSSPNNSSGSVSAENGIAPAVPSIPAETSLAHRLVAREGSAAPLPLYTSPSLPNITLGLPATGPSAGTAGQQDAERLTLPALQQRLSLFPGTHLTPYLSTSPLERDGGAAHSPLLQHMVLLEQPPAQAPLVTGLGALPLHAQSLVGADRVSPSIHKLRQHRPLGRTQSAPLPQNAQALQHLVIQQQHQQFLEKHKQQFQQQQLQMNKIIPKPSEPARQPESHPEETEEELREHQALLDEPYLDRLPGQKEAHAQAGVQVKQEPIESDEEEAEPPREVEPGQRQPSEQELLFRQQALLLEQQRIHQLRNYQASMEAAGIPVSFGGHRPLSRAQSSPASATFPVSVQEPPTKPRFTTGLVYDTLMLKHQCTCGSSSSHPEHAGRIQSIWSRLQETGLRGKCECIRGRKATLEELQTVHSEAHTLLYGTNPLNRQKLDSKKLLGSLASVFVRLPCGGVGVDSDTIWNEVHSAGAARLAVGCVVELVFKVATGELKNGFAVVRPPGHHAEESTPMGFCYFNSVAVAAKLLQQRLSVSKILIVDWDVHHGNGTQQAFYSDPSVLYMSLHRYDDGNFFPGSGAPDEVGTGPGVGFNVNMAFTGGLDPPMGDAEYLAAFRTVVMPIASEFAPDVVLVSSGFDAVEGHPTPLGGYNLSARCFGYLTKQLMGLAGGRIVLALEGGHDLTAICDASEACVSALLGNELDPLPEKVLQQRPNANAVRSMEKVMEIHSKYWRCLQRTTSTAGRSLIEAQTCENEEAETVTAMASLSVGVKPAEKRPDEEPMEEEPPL
structure (smiles),measurement,setting,value
"N[C@@H](CCCCCS)C(=O)O [SHA, 2S-2-amino-7-sulfanylheptanoic acid]",IC50,HDAC2,5000 nM
same,HDAC6 inhibition potency in words,HDAC6,low micro-molar to high nano-molar affinities
same,HDAC6 raw activity signal,HDAC6; Conc. 1.00E-05 M,33328
same,HDAC6 raw activity signal,HDAC6; Conc. 1.11E-06 M,230710
same,HDAC6 raw activity signal,HDAC6; Conc. 1.23E-07 M,527992
same,HDAC6 raw activity signal,HDAC6; Conc. 1.37E-08 M,589576
same,HDAC6 raw activity signal,HDAC6; Conc. 1.52E-09 M,605039
same,HDAC6 raw activity signal,HDAC6; Conc. 3.33E-06 M,100537
same,HDAC6 raw activity signal,HDAC6; Conc. 3.70E-07 M,381738
same,HDAC6 raw activity signal,HDAC6; Conc. 4.12E-08 M,574853
same,HDAC6 raw activity signal,HDAC6; Conc. 4.57E-09 M,596934
same,HDAC6 raw activity signal,HDAC6; Conc. 5.08E-10 M,614098
same,IC50,HDAC6,600 nM
same,binding to HDAC9,HDAC9,not detected binding; also recorded: no binding
same,HDAC9 raw activity signal,HDAC9; Conc. 1.00E-05 M,866095
same,HDAC9 raw activity signal,HDAC9; Conc. 1.11E-06 M,1324190
same,HDAC9 raw activity signal,HDAC9; Conc. 1.23E-07 M,1424055
same,HDAC9 raw activity signal,HDAC9; Conc. 1.37E-08 M,1252931
same,HDAC9 raw activity signal,HDAC9; Conc. 1.52E-09 M,1327312
same,HDAC9 raw activity signal,HDAC9; Conc. 3.33E-06 M,1253108
same,HDAC9 raw activity signal,HDAC9; Conc. 3.70E-07 M,1495255
same,HDAC9 raw activity signal,HDAC9; Conc. 4.12E-08 M,1362638
same,HDAC9 raw activity signal,HDAC9; Conc. 4.57E-09 M,1400560
same,HDAC9 raw activity signal,HDAC9; Conc. 5.08E-10 M,1258385
same,HDAC3 inhibition potency in words,HDAC3,low micro-molar to high nano-molar affinities
same,HDAC3 raw activity signal,HDAC3; Conc. 1.00E-05 M,305013
same,HDAC3 raw activity signal,HDAC3; Conc. 1.11E-06 M,772070
same,HDAC3 raw activity signal,HDAC3; Conc. 1.23E-07 M,916440
same,HDAC3 raw activity signal,HDAC3; Conc. 1.37E-08 M,1023518
same,HDAC3 raw activity signal,HDAC3; Conc. 1.52E-09 M,969054
same,HDAC3 raw activity signal,HDAC3; Conc. 3.33E-06 M,650146
same,HDAC3 raw activity signal,HDAC3; Conc. 3.70E-07 M,835487
same,HDAC3 raw activity signal,HDAC3; Conc. 4.12E-08 M,896484
same,HDAC3 raw activity signal,HDAC3; Conc. 4.57E-09 M,995503
same,HDAC3 raw activity signal,HDAC3; Conc. 5.08E-10 M,959845
same,binding to HDAC4,HDAC4,not detected binding
same,HDAC4 raw activity signal,HDAC4; Conc. 1.00E-05 M,1818034
same,HDAC4 raw activity signal,HDAC4; Conc. 1.11E-06 M,1589038
same,HDAC4 raw activity signal,HDAC4; Conc. 1.23E-07 M,1682923
same,HDAC4 raw activity signal,HDAC4; Conc. 1.37E-08 M,1569641
same,HDAC4 raw activity signal,HDAC4; Conc. 1.52E-09 M,1604062
same,HDAC4 raw activity signal,HDAC4; Conc. 3.33E-06 M,1651123
same,HDAC4 raw activity signal,HDAC4; Conc. 3.70E-07 M,1661788
same,HDAC4 raw activity signal,HDAC4; Conc. 4.12E-08 M,1863011
same,HDAC4 raw activity signal,HDAC4; Conc. 4.57E-09 M,1554862
same,HDAC4 raw activity signal,HDAC4; Conc. 5.08E-10 M,1555289
"CCCC[C@H]1NC(=O)[C@H](Cc2ccccc2)NC(=O)[C@H](CCCCCS)NC(=O)[C@@H](CCCNC(=N)N)NC(=O)[C@H](CC(=O)O)NC(=O)[C@@H](CO)NC(=O)[C@@H](C)NC(=O)[C@H](CCCCN)NC1=O [des4.3.1, SHA-Phe-dNle-Lys-dAla-dSer-Asp-dArg] (HELM PEPTIDE1{D.[dR].[O=C([C@H](CCCCCS)N[*:1])[*:2]].F.[CCCC[C@@H](N[*:1])C(=O)[*:2]].K.[dA].[dS]}$PEPTIDE1,PEPTIDE1,1:R1-8:R2$$$V2.0)",IC50,HDAC2,350 nM
same,6-Selectivity: fold potency for HDAC6 over HDAC2,HDAC6,88.2 fold and 88 fold
same,HDAC6 activity raw data (signal),"HDAC6; Conc. 1.00E-05 M, t1",5754
same,HDAC6 activity raw data (signal),"HDAC6; Conc. 1.00E-05 M, t2",4634
same,HDAC6 activity raw data (signal),"HDAC6; Conc. 1.11E-06 M, t1",10293
same,HDAC6 activity raw data (signal),"HDAC6; Conc. 1.11E-06 M, t2",17466
same,HDAC6 activity raw data (signal),"HDAC6; Conc. 1.23E-07 M, t1",97345
same,HDAC6 activity raw data (signal),"HDAC6; Conc. 1.23E-07 M, t2",90888
same,HDAC6 activity raw data (signal),"HDAC6; Conc. 1.37E-08 M, t1",307015
same,HDAC6 activity raw data (signal),"HDAC6; Conc. 1.37E-08 M, t2",326589
same,HDAC6 activity raw data (signal),"HDAC6; Conc. 1.52E-09 M, t1",510826
same,HDAC6 activity raw data (signal),"HDAC6; Conc. 1.52E-09 M, t2",490649
same,HDAC6 activity raw data (signal),"HDAC6; Conc. 3.33E-06 M, t1",6046
same,HDAC6 activity raw data (signal),"HDAC6; Conc. 3.33E-06 M, t2",6920
same,HDAC6 activity raw data (signal),"HDAC6; Conc. 3.70E-07 M, t1",48261
same,HDAC6 activity raw data (signal),"HDAC6; Conc. 3.70E-07 M, t2",37034
same,HDAC6 activity raw data (signal),"HDAC6; Conc. 4.12E-08 M, t1",179198
same,HDAC6 activity raw data (signal),"HDAC6; Conc. 4.12E-08 M, t2",202702
same,HDAC6 activity raw data (signal),"HDAC6; Conc. 4.57E-09 M, t1",433664
same,HDAC6 activity raw data (signal),"HDAC6; Conc. 4.57E-09 M, t2",442171
same,HDAC6 activity raw data (signal),"HDAC6; Conc. 5.08E-10 M, t1",531205
same,HDAC6 activity raw data (signal),"HDAC6; Conc. 5.08E-10 M, t2",556727
same,IC50,"HDAC6; figure legends, Supp. Tables 1 and 8",17.1 nM
same,HDAC3 activity raw data (signal),"HDAC3; Conc. 1.00E-05 M, t1",46115
same,HDAC3 activity raw data (signal),"HDAC3; Conc. 1.00E-05 M, t2",35378
same,HDAC3 activity raw data (signal),"HDAC3; Conc. 1.11E-06 M, t1",372696
same,HDAC3 activity raw data (signal),"HDAC3; Conc. 1.11E-06 M, t2",416274
same,HDAC3 activity raw data (signal),"HDAC3; Conc. 1.23E-07 M, t1",1045370
same,HDAC3 activity raw data (signal),"HDAC3; Conc. 1.23E-07 M, t2",1070696
same,HDAC3 activity raw data (signal),"HDAC3; Conc. 1.37E-08 M, t1",1250439
same,HDAC3 activity raw data (signal),"HDAC3; Conc. 1.37E-08 M, t2",1300529
same,HDAC3 activity raw data (signal),"HDAC3; Conc. 1.52E-09 M, t1",1121419
same,HDAC3 activity raw data (signal),"HDAC3; Conc. 1.52E-09 M, t2",1274974
same,HDAC3 activity raw data (signal),"HDAC3; Conc. 3.33E-06 M, t1",172249
same,HDAC3 activity raw data (signal),"HDAC3; Conc. 3.33E-06 M, t2",152173
same,HDAC3 activity raw data (signal),"HDAC3; Conc. 3.70E-07 M, t1",787295
same,HDAC3 activity raw data (signal),"HDAC3; Conc. 3.70E-07 M, t2",779442
same,HDAC3 activity raw data (signal),"HDAC3; Conc. 4.12E-08 M, t1",1318255
same,HDAC3 activity raw data (signal),"HDAC3; Conc. 4.12E-08 M, t2",1249169
same,HDAC3 activity raw data (signal),"HDAC3; Conc. 4.57E-09 M, t1",1278679
same,HDAC3 activity raw data (signal),"HDAC3; Conc. 4.57E-09 M, t2",1136444
same,HDAC3 activity raw data (signal),"HDAC3; Conc. 5.08E-10 M, t1",1099296
same,HDAC3 activity raw data (signal),"HDAC3; Conc. 5.08E-10 M, t2",1140869
